Experimental data reported in patent publication US8703197B2, “Branched polyamines for delivery of biologically active materials” (International Business Machines Corporation, priority 2012, dated 2014).

System: HeLa cells
Assay: MTT cytotoxicity of polymer/gene complexes in HeLa cells
Assay type: cell-based, human
Method: The cytotoxicity of the modified bPEI-25/gene complexes and modified bPEI-25/siRNA complexes was studied using the standard MTT assay protocol on HepG2, HeLa and SK-OV-3 cells. The GFP plasmid was used for complex formation and treatment of HepG2 and HeLa cells, while the luciferase plasmid was used for complex formation and treatment of SK-OV-3 cells.
HepG2, HeLa and SK-OV-3 cells were seeded onto 96-well plates at densities of 10000 cells, 5000 and 16000 cells per well, respectively, and allowed to grow to 60% to 70% confluency before treatment. Polymer/gene or polymer/siRNA complexes at various N/P ratios were prepared in water as described above. The cells in each well were then incubated with growth medium comprising 10 microliters of polymer/nucleic acid complexes and 100 microliters of fresh medium for 4 hours at 37° C. Following incubation, the medium was replaced with fresh growth medium and incubated further for 68 hours. […] A 100 microliter aliquot from each well was then transferred to a new 96-well plate for determination of absorbance using a microplate spectrophotometer at wavelengths of 550 nm and 690 nm. Relative cell viability was expressed as [A550−A690)sample/(A550−A690)control]×100%. Data were expressed as mean±standard deviations of at least eight replicates per N/P ratio.

Substance: Branched Polyethylenimine [bPEI-25]
- Maximum N/P ratio for Cell Viability ≧80%, HeLa Max N/P: 20
